Test results from PubChem BioAssay AID1963861 (Molecular Pharmacology Branch, DTP, NCI, 2024).
Several values for one entry are separate records, joined by “and”; a condition that tells them apart may be missing. Identical values can stand only once.

Tested on: 885724-159-R-J1-PDC KRAS PDC multicell spheroid viability
Assay: Anticancer human tumor 885724-159-R-J1-PDC patient-derived pancreatic adenocarcinoma cell line growth inhibition [KRAS2]
Conditions: for viability, T/C: stronger effect = lower value
Procedure, shortened: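 Combination screen of spheroid viability in tumor-cell co-cultures with endothelial (HUVEC) and mesenchymal stem cell stroma. Each agent was tested in half-log dilutions, topping at clinical Cmax or at 10 microM without a known Cmax.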

[1] = curve of first compound, second compound 0.1 µM
[2] = curve of first compound, second compound 0.316 µM
[3] = curve of first compound, second compound 1 µM
[4] = curve of first compound, second compound 3.16 µM
[5] = second compound 0.1 µM, first compound 0.0316 µM
[6] = second compound 0.1 µM, first compound 0.1 µM
[7] = second compound 0.1 µM, first compound 0.316 µM
[8] = second compound 0.1 µM, first compound 1 µM
[9] = second compound 0.1 µM, first compound 3.16 µM
[10] = second compound 0.316 µM, first compound 0.0316 µM
[11] = second compound 0.316 µM, first compound 0.1 µM
[12] = second compound 0.316 µM, first compound 0.316 µM
[13] = second compound 0.316 µM, first compound 1 µM
[14] = second compound 0.316 µM, first compound 3.16 µM
[15] = second compound 1 µM, first compound 0.0316 µM
[16] = second compound 1 µM, first compound 0.1 µM
[17] = second compound 1 µM, first compound 0.316 µM
[18] = second compound 1 µM, first compound 1 µM
[19] = second compound 1 µM, first compound 3.16 µM
[20] = second compound 3.16 µM, first compound 0.0316 µM
[21] = second compound 3.16 µM, first compound 0.1 µM
[22] = second compound 3.16 µM, first compound 0.316 µM
[23] = second compound 3.16 µM, first compound 1 µM
[24] = second compound 3.16 µM, first compound 3.16 µM
[25] = compound alone, run of 08/19/2021
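Also: spheroids exposed to agents for 7 days before readout.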

SMILES | IC50 [1] | IC50 [2] | IC50 [3] | IC50 [4] | viability, T/C [5] | viability, T/C [6] | viability, T/C [7] | viability, T/C [8] | viability, T/C [9] | viability, T/C [10] | viability, T/C [11] | viability, T/C [12] | viability, T/C [13] | viability, T/C [14] | viability, T/C [15] | viability, T/C [16] | viability, T/C [17] | viability, T/C [18] | viability, T/C [19] | viability, T/C [20] | other results
CC1OCC2(CCN(c3cnc(Sc4ccnc(N)c4Cl)c(N)n3)CC2)C1N (configuration not stated) + C=CC(=O)N1CCN(c2nc(OCC3CCCN3C)nc3c2CCN(c2cccc4cccc(C)c24)C3)CC1CC#N | > 10 µM | > 10 µM | 9.45 µM | < 0.0316 µM | 103% | 89.8% | 71.6% | 69.6% | 63.4% | 94% | 84.7% | 70.5% | 67.9% | 60.2% | 79.4% | 73.4% | 64% | 56.2% | 56.8% | 46% | IC50 (curve of first compound, second compound 0.0316 µM): > 10 µM; viability, T/C (second compound 0.0316 µM, first compound 0.0316 µM): 97%; viability, T/C (second compound 0.0316 µM, first compound 0.1 µM): 85.7%; viability, T/C (second compound 0.0316 µM, first compound 0.316 µM): 76.6%; viability, T/C (second compound 0.0316 µM, first compound 1 µM): 68.4%; viability, T/C (second compound 0.0316 µM, first compound 3.16 µM): 69.7%; viability, T/C (second compound 0.0316 µM, first compound 10 µM): 56.6%; viability, T/C (second compound 0.1 µM, first compound 10 µM): 61.6%; viability, T/C (second compound 0.316 µM, first compound 10 µM): 57.3%; viability, T/C (second compound 1 µM, first compound 10 µM): 48.6%; viability, T/C [21]: 40.2%; viability, T/C [22]: 36.1%; viability, T/C [23]: 33.6%; viability, T/C [24]: 35.1%; viability, T/C (second compound 3.16 µM, first compound 10 µM): 27.1%
C=CC(=O)N1CCN(c2nc(=O)n(-c3c(C)ccnc3C(C)C)c3nc(-c4c(O)cccc4F)c(F)cc23)C(C)C1 (configuration not stated) | – | – | – | – | – | – | – | – | – | – | – | – | – | – | – | – | – | – | – | – | viability, T/C (compound 0.1 µM): 107% [middle of 15 runs]; viability, T/C (compound 0.316 µM): 107% [middle of 15 runs]; viability, T/C (compound 1 µM): 106% [middle of 15 runs]; IC50 [25]: > 10 µM; IC50 (compound alone, run of 08/26/2021): > 10 µM; IC50 (compound alone, run of 09/02/2021): > 10 µM
CC1COCCN1c1cc(-c2ccnn2C)c2ccnc(-c3ccn[nH]3)c2n1 (configuration not stated) + CNCc1ccccc1-c1csc(C(C)Nc2nc(C)nc3cc(OC)c(OC)cc23)c1 | > 3.16 µM | > 3.16 µM | > 3.16 µM | < 0.01 µM | 85.3% | 80.1% | 61.4% | 58.8% | 58.8% | 90.4% | 73.8% | 64.2% | 57.8% | 57.4% | 84.4% | 75.1% | 64.7% | 55.7% | 56.8% | 0.77% | IC50 (curve of first compound, second compound 10 µM): < 0.01 µM; viability, T/C (second compound 0.1 µM, first compound 0.01 µM): 108%; viability, T/C (second compound 0.316 µM, first compound 0.01 µM): 108%; viability, T/C (second compound 1 µM, first compound 0.01 µM): 106%; viability, T/C (second compound 3.16 µM, first compound 0.01 µM): 2.14%; viability, T/C [21]: 0.58%; viability, T/C [22]: 0.86%; viability, T/C [23]: 1.55%; viability, T/C [24]: 1.97%; viability, T/C (second compound 10 µM, first compound 0.01 µM): 0.21%; viability, T/C (second compound 10 µM, first compound 0.0316 µM): 0.23%; viability, T/C (second compound 10 µM, first compound 0.1 µM): 0.26%; viability, T/C (second compound 10 µM, first compound 0.316 µM): 0.24%; viability, T/C (second compound 10 µM, first compound 1 µM): 0.22%; viability, T/C (second compound 10 µM, first compound 3.16 µM): 0.28%
COc1cc2nc(C)nc(NC(C)c3cc(N)cc(C(F)(F)F)c3)c2cc1OC1CCOC1 (configuration not stated) | – | – | – | – | – | – | – | – | – | – | – | – | – | – | – | – | – | – | – | – | IC50 [25]: > 10 µM and 8.35 µM and 7.91 µM
